Data as given in paper PMC5367682, “Fragment library screening identifies hits that bind to the non-catalytic surface of Pseudomonas aeruginosa DsbA1” (PLoS ONE, 2017).

These compounds were tested against T1, PaDsbA1 (Pseudomonas aeruginosa, UniProt P0C2B2) (assay: […]-HSQC NMR titration, CSP fitted to one-site model).
T1 construct: gene dsbA; N-terminal His6 tag cut with TEV; E. coli BL21(DE3) Gold; 15N-labelled for NMR, oxidized; NMR structure residues 3-192
T1 sequence (P0C2B2 22-211): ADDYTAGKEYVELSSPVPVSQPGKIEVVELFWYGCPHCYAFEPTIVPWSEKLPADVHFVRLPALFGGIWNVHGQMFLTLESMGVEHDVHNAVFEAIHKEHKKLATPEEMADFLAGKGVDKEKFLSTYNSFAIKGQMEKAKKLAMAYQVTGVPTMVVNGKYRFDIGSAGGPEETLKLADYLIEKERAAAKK
Assay type: binding
In the case of COc1ccc(-c2nc(N)sc2C)cc1 [compound 6, Fragment 6], the Kd is reported as 3900 ± 200 µM. Oc1nc2ccccc2s1 [compound 3, Fragment 3] was tested, and the Kd was 2100 ± 300 µM. With Cc1ccccc1CSc1nncn1N [compound 1, Fragment 1] the Kd was 900 µM. CNCc1ccc(-c2cccc(Cl)c2)o1 [compound 7, Fragment 7] gave a Kd of 4300 ± 1000 µM. Compound Cc1cc(C(=O)Nc2cccc(O)c2)c(C)o1 [compound 2, Fragment 2] has a Kd of 1600 ± 200 µM. NNC(=O)c1cc(C2CC2)n[nH]1 [compound 5, Fragment 5] showed a Kd of 2700 ± 700 µM. With Nc1cccc(C(=O)Nc2ccccc2Cl)c1 [compound 8, Fragment 8] the Kd was 4400 ± 5000 µM. Nc1ccc(-c2nc3ccccc3[nH]2)cc1 [compound 4, Fragment 4] showed a Kd of 2500 ± 400 µM.

Each compound was assayed against T2, EcDsbA (Escherichia coli, UniProt P0AEG4) (assay: […]-HSQC NMR after STD NMR).
T2 construct: gene dsbA; 15N-labelled for HSQC
T2 sequence (P0AEG4 20-208): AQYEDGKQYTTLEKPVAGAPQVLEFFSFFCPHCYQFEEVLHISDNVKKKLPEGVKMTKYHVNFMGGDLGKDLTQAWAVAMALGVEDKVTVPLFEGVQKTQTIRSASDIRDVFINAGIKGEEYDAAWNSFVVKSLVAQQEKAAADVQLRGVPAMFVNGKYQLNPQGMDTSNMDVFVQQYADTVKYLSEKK
Assay type: binding
With COc1ccc(-c2nc(N)sc2C)cc1 [compound 6, Fragment 6] the Kd was over 5000 µM.
